This experiment addresses T1, PHF1 (Homo sapiens, UniProt O43189).
T1 construct: PHF1 (aa 28–87); His (N, cleaved yes); made in house; host or cells: E. coli BL21 (DE3) Codon plus RIL
In words: ITC binding to PHF1. As to conditions: Fig. 1c. The text has this: The coding DNA fragments of following Tudor domains were cloned into pET28-MHL vector: SMN (aa 82–147), UHRF1 (aa 126–285), SMNDC1 (aa 53–130), TDRD3 (aa 554–611), SND1 (aa 650–910), TDRD2 (aa 327–420), FXR1 (aa 2–132), PHF1 (aa 28–87), SGF29 (aa 115–293), JMJD2A (aa 897–1101), 53BP1 (aa 1483–1606), SETDB1 (aa 190–410), LBR (aa 1–67), ZGPAT (aa 120–271). The coding regions of chromodomain of CBX7 (aa 8–62), PWWP domain of DNMT3A (aa 275–417), WD40 repeats of WDR5 (aa 24–334) and CW domain of ZCWPW2 (aa 21–78) were also subcloned into pET28-MHL vector to generate N-terminally His-tagged fusion protein. The MBT repeats of L3MBTL1 (aa 200–522) and L3MBTL2 (aa 170–625) were subcloned into pET28GST-LIC vector to generate N-terminally GST-His-tagged fusion protein. All the plasmids were generated by ligase independent cloning (Vazyme Biotech, C112 or ABclonal Technology, RK21020). […] The molecular weight of all protein samples was measured by mass spectrometry.
For the ITC measurement, the concentrated proteins were diluted into 20 mM Tris-HCl, pH 7.5, 150 mM NaCl (ITC buffer); the lyophilized compounds were dissolved in the same buffer, and the pH value was adjusted by adding 2 M NaOH or 2 M HCl. […] Compound concentrations were calculated from the mass and the volume of the solvent. […]

T1 sequence (O43189 28-87): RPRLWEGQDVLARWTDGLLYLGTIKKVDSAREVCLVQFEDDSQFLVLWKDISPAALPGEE

As usually defined, the Kd is the free concentration of one partner at which half of the binding sites on the other are occupied at equilibrium, for simple one-to-one binding. Higher therefore signals lower affinity. The compound `Cn1c2c(c(=N)c3c1CCC3)CCC2` [Compound 1, 4-methyl-2,3,4,5,6,7-hexahydrodicyclopenta[b,e]pyridin-8(1H)-imine] showed a Kd of over 244 µM.

The values are drawn from article PMC9481570, “A small molecule antagonist of SMN disrupts the interaction between SMN and RNAP II” (Nature Communications, 2022).
